# Experimental data: patent US11219625B2, “Inhibitors of N-linked glycosylation and methods using same” (YALE UNIVERSITY, priority 2015, dated 2022)
# How the values were obtained:
# [1] = tested on: cyclin D1; assay: Cyclin D1 expression (qRT-PCR, western blot), PC9; assay type: cell-based, human
# Method: FIGS. 5A-5G illustrate NGI-1 induces G1 arrest and senescence in EGFR addicted tumor cells. FIG. 5A illustrates cell cycle distribution of PC9 cells after 24 h NGI-1 treatment for 24 h determined by flow cytometry. […] FIG. 5B illustrates cell cycle distribution of A549 cells after 24 h NGI-1 treatment for 24 h determined by flow cytometry. FIG. 5C illustrates western blot time course of cyclin D1 expression in PC9 and A549 cells after NGI-1 treatment. FIG. 5D illustrates quantitative real-time PCR analysis of PC9 and A549 cells. A time course of cyclin D1 expression levels relative to GAPDH is represented. […] FIG. 5F illustrates senescence of PC9 cells explored by: cell autofluorescence, measured by flow cytometry using a detector for PE/YFP; lipofuscin accumulation, detected by confocal laser scanning microscopy using an excitation laser of 405 nm with acquired signals from spectrums of yellow 575-620 nm; and morphology changes, enlarged vs. flattened. […] Significance was calculated using a T test (*p<0.05. **p<0.01). FIG. 5G illustrates senescence of A549 cells explored by: cell autofluorescence, measured by flow cytometry using a detector for PE/YFP; lipofuscin accumulation, detected by confocal laser scanning microscopy using an excitation laser of 405 nm with acquired signals from spectrums of yellow 575-620 nm; and morphology changes, enlarged vs. flattened. […]
# [2] = tested on: EGFR; assay: EGFR western blot gel mobility, H3255 cells; assay type: cell-based; settings: lung adenocarcinoma cells, 10 μM NGI-1, 24 h
# Method: FIGS. 3A-3F illustrate the finding that NGI-1 disrupts EGFR glycosylation and cell surface expression. FIG. 3A illustrates EGFR western blots from H3255 treated with or without 10 μM NGI-1 for 24 h. Molecular weight size shifts are compared to PNGase digestion and tunicamycin treatment alone. FIG. 3B illustrates EGFR localization in H3255 cells after 24 h 10 μM NGI-1 treatment analyzed by western blot. Plasma membrane proteins present on the surface of H3255 cells were biotinylated using a non-permeable form of biotin, sulfo-NHS—SS-biotin, and precipitated by streptavidin agarose beads. Biotin-labeled plasma membrane proteins and the fraction of non-biotinylated proteins were subjected to SDS-PAGE and analyzed by western blot against EGFR. FIG. 3C illustrates EGFR localization in H3255 cells after 24 h 10 μM NGI-1 treatment analyzed by confocal microscopy. H3255 cells were subjected to immunofluorescence for EGFR protein (red) counterstained with (CRT; green) and colocalization was determined by confocal microscopy. Nuclei were counterstained with ToPro3 (cyan). […] Bar, 10 μm. FIG. 3D illustrates quantification of colocalization using Image J Colormap Software. […] ITB1 localization after 10 μM NGI-1 for 48 h analyzed by (FIG. 3E) surface biotinylation (FIG. 3F) confocal microscopy (green). […]
smiles,measurement,setting,value
"Cc1cnc(NC(=O)c2cc(S(=O)(=O)N(C)C)ccc2N2CCCC2)s1 [NGI-1, 5-(N,N-Dimethylsulfamoyl)-N-(5-methylthiazol-2-yl)-2-(pyrrolidin-1-yl)benzamide]","cyclin D1 reduced, protein level",[1]; PC9,40%
same,"cyclin D1 reduced, mRNA level","[1]; PC9, p<0.01",40%±15%
same,EGFR N-linked glycosylation (molecular weight on SDS-PAGE),[2],blocked EGFR N-linked glycosylation
